Test results as given in US12024510B2, “Pyrazolopyridine-diamides, their use as insecticide and processes for preparing the same” (PI INDUSTRIES LTD., priority 2017, dated 2024).

Assays:
Format in all cases: in vivo
Helicoverpa armigera = Helicoverpa armigera diet incorporation method; conditions: third instar larvae, dead and moribund combined, 96 h after release
Procedure, shortened: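 500 ppm stock of compound milled with surfactant and zirconia beads to average particle size below 2 μm, dispersed in DM water, diluted as needed, and mixed into semi-synthetic diet at about 50° C. Single starved third-instar larvae per cell, held at 25° C., 70% RH; dead plus moribund larvae scored as percent mortality at 96 h.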

Spodoptera litura = Spodoptera litura diet incorporation method; conditions: third instar larvae, dead and moribund combined, 96 h after release
Experimental: Test Solutions were Prepared According to the Procedure Described Herein Below (500 PPM):
• 1. Eppendorf Vortex mixer (ThermoMixer C) and 1.5 mL Eppendorf tubes • 2. Zirconia (Zirconium-Yttrium) beads having diameter of 0.8 to 1.0 mm • 3. Microscope • 4. Beaker 100 mL • 5. Micro-pipette Reagents: • 1. Surfactant Solution • 2. De-mineralized (DM) Water • 1. Weigh 10 mg of the compound of the present invention to be tested in an Eppendorf Tube. • 2. Add 200 mg of the Surfactant Solution into the tube. • 3. Add 600 mg of Zirconia beads into the above mixture. • 4. Fix the tube in Eppendorf Vortex mixer and start vortexing at 2000 rpm. • 5. Mix on Vortex mixer for 30 minutes. After 30 minutes, observe the sample over a microscope at 400× resolution. • 6. If the Maximum particle size is more than 5 μm or average particle size is more than 2 μm or the particle size distribution is uneven, continue vortexing for another 30 minutes and again check the particle size using the microscope. Continue till the average particle size is below 2 microns. • 7. When the required particle size is achieved, add 1.0 mL DM water into the tube, close the cap, shake the tube thoroughly and transfer the contents, along with the beads, into a beaker. • 8. To rinse the tube, add another 1.0 mL of DM water into the tube, close the cap, shake well and transfer this into the same beaker. • 9. Repeat Step no. 8 one more time so that the tube is rinsed well and the compound of the present invention to be tested is transferred to the beaker. • 10. Add 16.8 mL of DM water into the beaker and stir well. • 11. The homogeneous dispersion can then be decanted into a glass vial, immediately, to separate the Zirconia beads. • 12. Immediately use this sample for biological testing. • 13. Further dilutions can be prepared by taking appropriate quantity of the aliquot of Step 10, immediately after stirring, and diluting as per requirement. The sample solution must be well mixed just before biological testing.
Diet incorporation method was used, in which semi-synthetic diet was incorporated into the test solution when the temperature is approximately 50° C. in the bioassay containers and stirred thoroughly for properly mixing and then was allowed to cool for 30 min. The solidified diet was cut into equal pieces, and then each piece was transferred in one cell in Bio-assay trays. A single third instar starved larva was released into each of these cells of bioassay trays and the tray was covered with the lid. The bio-assay trays were kept under laboratory conditions at a temperature of 25° C. and Relative Humidity of 70%. Observations on dead, moribund and live larvae were recorded at 96 h after the release of larvae. Percent mortality was calculated by combining dead and moribund larvae. The following compound numbers

Plutella xylostella = experiment: whole plant or invertebrate; conditions: foliar, cabbage leaf dip, second instar larvae, dead and moribund combined, 72 h after release
Procedure, shortened: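 Compounds milled with zirconia beads into surfactant dispersion (500 ppm stock), diluted in 0.01% Triton-X. Cabbage leaves dipped 10 s, shade-dried 20 min; one second-instar larva per cell, 25 °C, 70% RH. Mortality (dead plus moribund) scored at 72 h.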

| Compound | mortality at 300 ppm (Helicoverpa armigera) [%] | mortality at 300 ppm (Spodoptera litura) [%] | mortality at 300 ppm (Plutella xylostella) [%] |
| --- | --- | --- | --- |
| C=CCNC(=O)c1c(NC(=O)c2cc(C(F)(F)F)nn2-c2ncccc2Cl)c(C)cc2ccnn12 [Compound 64, N-allyl-6-(1-(3-chloropyridin-2-yl)-3-(trifluoromethyl)-1H-pyrazole-5-carboxamido)-5-methylpyrazolo[1,5-a]pyridine-7-carboxamide] | > 70 | > 70 |  |
| CCCNC(=O)c1c(NC(=O)c2cc(C(F)(F)F)nn2-c2ncccc2Cl)c(C)cc2ccnn12 [Compound 92, 6-(1-(3-chloropyridin-2-yl)-3-(trifluoromethyl)-1H-pyrazole-5-carboxamido)-5-methyl-N-propylpyrazolo[1,5-a]pyridine-7-carboxamide] | > 70 | > 70 |  |
| CCONC(=O)c1c(NC(=O)c2cc(Br)nn2-c2ncccc2Cl)c(C)cc2ccnn12 [Compound 106, 6-(3-bromo-1-(3-chloropyridin-2-yl)-1H-pyrazole-5-carboxamido)-N-ethoxy-5-methylpyrazolo[1,5-a]pyridine-7-carboxamide] |  | > 70 | > 70 |
| CC(C)NC(=O)c1c(NC(=O)c2cc(C(F)(F)F)nn2-c2ncccc2Cl)c(Br)cc2ccnn12 [Compound 107, 5-bromo-6-(1-(3-chloropyridin-2-yl)-3-(trifluoromethyl)-1H-pyrazole-5-carboxamido)-N-isopropylpyrazolo[1,5-a]pyridine-7-carboxamide] | > 70 | > 70 |  |
| COc1cc(C(=O)Nc2c(C)cc3ccnn3c2C(=O)NCC(F)(F)F)n(-c2ncccc2Cl)n1 [Compound 110, 6-(1-(3-chloropyridin-2-yl)-3-methoxy-1H-pyrazole-5-carboxamido)-5-methyl-N-(2,2,2-trifluoroethyl)pyrazolo[1,5-a]pyridine-7-carboxamide] |  | > 70 | > 70 |
| Cc1cc2ccnn2c(C(=O)NC(C)C2CC2)c1NC(=O)c1cc(OCC(F)(F)F)nn1-c1ncccc1Cl (stereo not shown) [Compound 121, 6-(1-(3-chloropyridin-2-yl)-3-(2,2,2-trifluoroethoxy)-1H-pyrazole-5-carboxamido)-N-(1-cyclopropylethyl)-5-methylpyrazolo[1,5-a]pyridine-7-carboxamide] | > 70 | > 70 |  |
| CCNC(=O)c1c(NC(=O)c2cc(Br)nn2-c2ncccc2Cl)c(Cl)cc2ccnn12 [Compound 142, 6-(3-bromo-1-(3-chloropyridin-2-yl)-1H-pyrazole-5-carboxamido)-5-chloro-N-ethylpyrazolo[1,5-a]pyridine-7-carboxamide] |  | > 70 | > 70 |
| CCCC(C)NC(=O)c1c(NC(=O)c2cc(OC)nn2-c2ncccc2Cl)c(C)cc2ccnn12 (stereo not shown) [Compound 184, 6-(1-(3-chloropyridin-2-yl)-3-methoxy-1H-pyrazole-5-carboxamido)-5-methyl-N-(pentan-2-yl)pyrazolo[1,5-a]pyridine-7-carboxamide] |  | > 70 | > 70 |
| Cc1cc2ccnn2c(C(=O)NC(C)CCC(C)C)c1NC(=O)c1cc(Br)nn1-c1ncccc1Cl (stereo not shown) [Compound 188, 6-(3-bromo-1-(3-chloropyridin-2-yl)-1H-pyrazole-5-carboxamido)-5-methyl-N-(5-methylhexan-2-yl)pyrazolo[1,5-a]pyridine-7-carboxamide] |  | > 70 | > 70 |
| Cc1cc2ccnn2c(C(=O)NC2CSC2)c1NC(=O)c1cc(Br)nn1-c1ncccc1Cl [Compound 207, 6-(3-bromo-1-(3-chloropyridin-2-yl)-1H-pyrazole-5-carboxamido)-5-methyl-N-(thietan-3-yl)pyrazolo[1,5-a]pyridine-7-carboxamide] |  | > 70 | > 70 |
| Cc1cc2ccnn2c(C(=O)NC2(C#N)CC2)c1NC(=O)c1cc(Br)nn1-c1ncccc1Cl [Compound 216, 6-(3-bromo-1-(3-chloropyridin-2-yl)-1H-pyrazole-5-carboxamido)-N-(1-cyanocyclopropyl)-5-methylpyrazolo[1,5-a]pyridine-7-carboxamide] |  | > 70 | > 70 |
